Measured values: the supplement of paper PMC10307832

Tests used:
Assay in all cases: relative viability (nuclei count vs DMSO), 5 days (fraction); higher = more cells survive
FH535 + Palbociclib = compound: CC1=C(C=CC(=C1)[N+](=O)[O-])NS(=O)(=O)C2=C(C=CC(=C2)Cl)Cl [FH535] + CC(=O)c1c(C)c2cnc(Nc3ccc(N4CCNCC4)cn3)nc2n(C2CCCC2)c1=O [Palbociclib] (partner 0.5 µM)
Summary of the method: (§1)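 Lung cancer cell lines in 1536-well plates were dosed by pin tool the day after seeding, either with one drug alone or with a fixed anchor-drug dose plus five library-drug doses (not always all listed) in √10 steps. After 5 days, cells were fixed and their nuclei stained in one step (final 0.05% Triton X-100, 1% formaldehyde, 1 ug/ml Hoechst), then counted on 4× images. Relative viability is the nuclei count in treated wells divided by that in vehicle wells. Values are medians of duplicate plates.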

FH535 + Linsitinib = compound: CC1=C(C=CC(=C1)[N+](=O)[O-])NS(=O)(=O)C2=C(C=CC(=C2)Cl)Cl [FH535] + C[C@]1(O)C[C@@H](c2nc(-c3ccc4ccc(-c5ccccc5)nc4c3)c3c(N)nccn32)C1 [Linsitinib] (partner 1 µM)
Summary of the method: as §1

FH535 + Luminespib = compound: CC1=C(C=CC(=C1)[N+](=O)[O-])NS(=O)(=O)C2=C(C=CC(=C2)Cl)Cl [FH535] + CCNC(=O)c1noc(-c2cc(C(C)C)c(O)cc2O)c1-c1ccc(CN2CCOCC2)cc1 [Luminespib] (partner 0.01 µM)
Summary of the method: as §1

FH535 + AZD7762 = compound: CC1=C(C=CC(=C1)[N+](=O)[O-])NS(=O)(=O)C2=C(C=CC(=C2)Cl)Cl [FH535] + NC(=O)Nc1cc(-c2cccc(F)c2)sc1C(=O)N[C@H]1CCCNC1 [AZD7762] (partner 0.2 µM)
Summary of the method: as §1

FH535 + Olaparib = compound: CC1=C(C=CC(=C1)[N+](=O)[O-])NS(=O)(=O)C2=C(C=CC(=C2)Cl)Cl [FH535] + O=C(c1cc(Cc2n[nH]c(=O)c3ccccc23)ccc1F)N1CCN(C(=O)C2CC2)CC1 [Olaparib] (partner 8 µM)
Summary of the method: as §1

| Cell Line | relative viability (FH535 + Palbociclib; first compound 0.04 µM) | relative viability (FH535 + Palbociclib; first compound 0.1265 µM) | relative viability (FH535 + Palbociclib; first compound 0.4 µM) | relative viability (FH535 + Palbociclib; first compound 1.265 µM) | relative viability (FH535 + Linsitinib; first compound 0.04 µM) | relative viability (FH535 + Linsitinib; first compound 0.1265 µM) | relative viability (FH535 + Linsitinib; first compound 0.4 µM) | relative viability (FH535 + Linsitinib; first compound 1.265 µM) | relative viability (FH535 + Luminespib; first compound 0.04 µM) | relative viability (FH535 + Luminespib; first compound 0.1265 µM) | relative viability (FH535 + Luminespib; first compound 0.4 µM) | relative viability (FH535 + Luminespib; first compound 1.265 µM) | relative viability (FH535 + AZD7762; first compound 0.04 µM) | relative viability (FH535 + AZD7762; first compound 0.1265 µM) | relative viability (FH535 + AZD7762; first compound 0.4 µM) | relative viability (FH535 + AZD7762; first compound 1.265 µM) | relative viability (FH535 + Olaparib; first compound 0.04 µM) | relative viability (FH535 + Olaparib; first compound 0.1265 µM) | relative viability (FH535 + Olaparib; first compound 0.4 µM) | relative viability (FH535 + Olaparib; first compound 1.265 µM) |
| --- | --- | --- | --- | --- | --- | --- | --- | --- | --- | --- | --- | --- | --- | --- | --- | --- | --- | --- | --- | --- |
| HCC-15 | 0.651 | 0.781 | 0.639 | 0.523 | 0.879 | 0.862 | 0.884 | 0.595 | 0.287 | 0.302 | 0.255 | 0.302 | 1.18 | 1.21 | 1.06 | 1.13 | 0.702 | 0.706 | 0.688 | 0.519 |
| HCC-44 | 1.02 | 0.889 | 0.914 | 0.79 | 0.704 | 0.647 | 0.705 | 0.469 | 1.09 | 1.16 | 1.02 | 0.575 | 1 | 0.961 | 0.898 | 0.866 | 0.976 | 0.929 | 0.969 | 0.768 |
| HCC-827 | 0.501 | 0.479 | 0.489 | 0.332 | 0.89 | 0.937 | 0.863 | 0.714 | 0.676 | 0.794 | 0.682 | 0.336 | 0.203 | 0.205 | 0.278 | 0.221 | 0.627 | 0.676 | 0.574 | 0.359 |
| HOP-62 | 0.481 | 0.462 | 0.456 | 0.393 | 1.01 | 1.09 | 1.07 | 0.713 | 0.695 | 0.98 | 0.831 | 0.707 | 0.473 | 0.66 | 0.416 | 0.55 | 0.278 | 0.36 | 0.4 | 0.453 |
| LC-2-ad | 0.481 | 0.482 | 0.476 | 0.441 | 0.846 | 0.829 | 0.771 | 0.502 | 0.967 | 1.16 | 1.03 | 0.755 | 0.809 | 0.828 | 0.744 | 0.697 | 0.74 | 0.703 | 0.713 | 0.526 |
| LCLC-97TM1 | 0.199 | 0.203 | 0.235 | 0.135 | – | 0.202 | 0.204 | 0.185 | 0.736 | 0.763 | 0.742 | 0.436 | 0.127 | 0.276 | 0.278 | 0.227 | 0.407 | 0.342 | 0.314 | 0.274 |
| LCLC-103H | 0.509 | 0.426 | 0.493 | 0.416 | 1.06 | 1.09 | 1.21 | 0.868 | 0.936 | 1.02 | 0.862 | 0.616 | 0.737 | 0.734 | 0.744 | 0.67 | 0.757 | 0.774 | 0.75 | 0.474 |
| LK-2 | 0.624 | 0.578 | 0.553 | 0.593 | 0.477 | 0.487 | 0.673 | 0.561 | 0.201 | 0.165 | 0.168 | 0.173 | 0.425 | 0.459 | 0.323 | 0.39 | 0.579 | 0.615 | 0.942 | 0.735 |
| LOU-NH91 | 0.458 | 0.536 | 0.548 | 0.497 | 0.861 | 1.02 | 0.932 | 0.506 | 0.333 | 0.326 | 0.369 | 0.288 | 0.767 | 0.779 | 0.608 | 0.428 | 0.876 | 0.905 | 0.793 | 0.421 |
| LU99A | 0.35 | 0.436 | 0.432 | 0.342 | 0.385 | 0.546 | 0.532 | 0.571 | 0.225 | 0.272 | 0.209 | 0.236 | 0.205 | 0.353 | 0.354 | 0.328 | 0.246 | 0.28 | 0.274 | 0.283 |
| LXF-289 | 0.597 | 0.618 | 0.559 | 0.497 | 0.949 | 0.938 | 0.897 | 0.697 | 0.635 | 0.837 | 0.611 | 0.61 | 1.05 | 1.1 | 1.03 | 0.873 | 0.916 | 1.06 | 1.03 | 0.587 |
| NCI-H23 | 0.453 | 0.552 | 0.477 | 0.471 | – | 0.633 | 0.628 | 0.567 | – | 0.207 | 0.199 | 0.225 | 0.22 | 0.391 | 0.275 | 0.307 | 0.255 | 0.331 | 0.3 | 0.273 |
| NCI-H322M | 0.489 | 0.481 | 0.524 | 0.511 | 0.982 | 1.07 | 1 | 0.847 | 0.816 | 0.904 | 0.866 | 0.805 | 0.522 | 0.549 | 0.515 | 0.633 | 0.739 | 0.664 | 0.778 | 0.741 |
| NCI-H358 | 0.121 | 0.129 | 0.129 | 0.134 | 0.696 | 0.822 | 0.791 | 0.552 | 0.325 | 0.368 | 0.293 | 0.308 | 0.495 | 0.571 | 0.529 | 0.252 | 0.558 | 0.611 | 0.589 | 0.635 |
| NCI-H441 | 0.212 | 0.197 | 0.176 | 0.174 | 0.573 | 0.447 | 0.521 | 0.615 | 0.319 | 0.291 | 0.356 | 0.352 | 1.09 | 1.32 | 1.09 | 1.02 | 0.516 | 0.501 | 0.459 | 0.439 |
| NCI-H460 | 0.175 | 0.253 | 0.244 | 0.117 | 0.902 | 0.891 | 0.791 | 0.678 | 0.0362 | 0.0377 | 0.0408 | 0.0254 | 0.616 | 0.615 | 0.603 | 0.337 | 0.402 | 0.386 | 0.379 | 0.32 |
